Experimental findings from ChEMBL document CHEMBL1129008, “Novel 1, 2, 4-oxadiazoles as potent and selective histamine H3 receptor antagonists” (Bioorg Med Chem Lett, 1996) are described below.

As usually defined, the Ki is a measure of affinity in units of concentration, obtained from inhibition or displacement. Low readings indicate tighter binding, high ones weaker binding. One may read the pKB as −log10 of the KB, conventionally taken in molar units. Lower therefore signals a large KB. Broadly, the ED50 is the dose at which the effect has come halfway, by size or by number of responders. A low value points to an effect at a small dose.

Where only a bound is given, the exact number is not on record here.

One assay deals with Histamine H3 receptor (Rattus norvegicus, UniProt Q9QYN8). Put plainly: Binding affinity against H3 receptor in rat cerebral cortex membranes was evaluated using [3H]N-methyl-histamine as radioligand. The assay is classed as cell membranes, Membrane.
In assay [1] the target is Histamine H3 receptor (Cavia porcellus) (UniProt Q9JI35). In words: Antagonistic activity at H3 receptor was assessed on guinea-pig longitudinal muscle strips subjected to electrical field stimulation. In kind it is functional.
Assay [2] addresses Histamine H2 receptor (Cavia porcellus) (UniProt P47747). Put plainly: Antagonistic activity at H2 receptor was assessed against histamine-induced tachycardia in guinea pig isolated atria. The assay is classed as functional.
In assay [3] the target is Histamine H1 receptor (Cavia porcellus) (UniProt P31389). Put plainly: Antagonistic activity against H1 receptor was determined in histamine induced contractions of guinea pig isolated whole ileum. In kind it is functional, tissue-based.
Assay [4] concerns Rattus norvegicus. Put plainly: Antagonism of ex vivo binding to rat cortex/hippocampus was determined using [3H]-N-alpha-Methylhistamine, after peroral administration. In kind it is functional. To be noted: po.
In assay [5] the test system is Rattus norvegicus. In words: Antagonism of ex vivo binding to rat cortex/hippocampus was determined using [3H]-N-alpha-Methylhistamine, after subcutaneous administration. The assay is classed as functional. To be noted: sc.
Assay [6] has as its system Rattus norvegicus. Put plainly: Compound was tested in vivo for (R)-alpha- methyl-histamine induced dipsogenicity in rats, upon subcutaneous administration. In kind it is functional. To be noted: sc.
In assay [7] the test system is Rattus norvegicus. Put plainly: Compound was tested in vivo for (R)-alpha- methyl-histamine induced dipsogenicity in rats, upon peroral administration. In kind it is functional. To be noted: po.

Chain of Histamine H1 receptor (Cavia porcellus) (P31389 whole entry): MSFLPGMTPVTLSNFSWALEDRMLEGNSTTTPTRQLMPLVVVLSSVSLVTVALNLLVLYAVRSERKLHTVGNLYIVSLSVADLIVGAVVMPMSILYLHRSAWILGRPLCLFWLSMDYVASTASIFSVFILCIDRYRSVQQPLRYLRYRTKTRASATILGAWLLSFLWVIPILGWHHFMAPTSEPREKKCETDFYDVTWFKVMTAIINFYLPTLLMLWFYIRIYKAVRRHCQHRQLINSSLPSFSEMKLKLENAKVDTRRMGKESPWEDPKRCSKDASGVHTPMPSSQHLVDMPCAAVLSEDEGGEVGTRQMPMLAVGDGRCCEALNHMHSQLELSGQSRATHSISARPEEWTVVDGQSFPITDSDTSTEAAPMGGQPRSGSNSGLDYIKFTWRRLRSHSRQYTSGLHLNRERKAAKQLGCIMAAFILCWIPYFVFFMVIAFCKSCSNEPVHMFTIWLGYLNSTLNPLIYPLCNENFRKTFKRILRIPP
Chain of Histamine H2 receptor (Cavia porcellus) (P47747 whole entry): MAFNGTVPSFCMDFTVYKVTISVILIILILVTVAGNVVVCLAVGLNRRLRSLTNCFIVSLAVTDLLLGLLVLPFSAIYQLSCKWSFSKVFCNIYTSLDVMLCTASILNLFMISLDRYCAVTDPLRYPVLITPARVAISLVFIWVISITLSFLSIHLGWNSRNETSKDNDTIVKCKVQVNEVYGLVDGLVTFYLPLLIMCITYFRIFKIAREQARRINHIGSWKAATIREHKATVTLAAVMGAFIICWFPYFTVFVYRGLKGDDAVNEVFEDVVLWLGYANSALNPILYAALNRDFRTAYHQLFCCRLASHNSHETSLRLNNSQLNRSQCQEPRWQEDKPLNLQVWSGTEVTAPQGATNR
Chain of Histamine H3 receptor (Cavia porcellus) (Q9JI35 whole entry): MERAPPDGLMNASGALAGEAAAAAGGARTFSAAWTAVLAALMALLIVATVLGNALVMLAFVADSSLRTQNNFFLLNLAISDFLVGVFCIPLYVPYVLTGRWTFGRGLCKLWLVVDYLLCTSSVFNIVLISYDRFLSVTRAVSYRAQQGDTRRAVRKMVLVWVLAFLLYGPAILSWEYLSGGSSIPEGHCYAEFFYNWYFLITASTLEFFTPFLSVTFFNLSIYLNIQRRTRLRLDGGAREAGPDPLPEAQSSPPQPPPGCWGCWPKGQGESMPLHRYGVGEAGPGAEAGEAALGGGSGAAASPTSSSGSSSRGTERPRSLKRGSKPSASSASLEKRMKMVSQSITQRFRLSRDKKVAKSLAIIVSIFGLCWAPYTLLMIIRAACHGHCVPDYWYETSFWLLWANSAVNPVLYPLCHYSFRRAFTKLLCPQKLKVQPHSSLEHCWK
Chain of Histamine H3 receptor (Q9QYN8 whole entry): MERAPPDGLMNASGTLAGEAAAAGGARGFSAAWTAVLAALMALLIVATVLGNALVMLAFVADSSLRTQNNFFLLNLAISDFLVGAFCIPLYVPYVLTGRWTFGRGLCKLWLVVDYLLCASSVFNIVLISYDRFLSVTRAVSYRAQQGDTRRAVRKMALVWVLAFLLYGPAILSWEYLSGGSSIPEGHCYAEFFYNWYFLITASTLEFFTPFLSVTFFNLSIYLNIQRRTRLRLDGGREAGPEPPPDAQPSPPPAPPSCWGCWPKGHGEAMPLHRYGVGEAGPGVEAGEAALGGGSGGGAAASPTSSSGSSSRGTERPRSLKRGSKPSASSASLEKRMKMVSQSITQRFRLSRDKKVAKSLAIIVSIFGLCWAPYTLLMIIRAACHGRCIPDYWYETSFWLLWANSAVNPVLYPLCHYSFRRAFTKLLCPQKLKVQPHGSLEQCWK

At Histamine H3 receptor, `Clc1ccc(Cc2noc(CCCc3cnc[nH]3)n2)cc1` gave a Ki of 0.0251 µM.

Regarding `Clc1ccc(Cc2n[nH]c(CCCc3c[nH]cn3)n2)cc1`, the pKB is 7.4 in assay [1], under 5 in assay [2] and under 5 in assay [3]. Also, affinity at Histamine H3 receptor was put at a Ki of 0.0126 µM.

For `Clc1ccc(Cc2noc(CCCc3c[nH]cn3)n2)cc1`, the values for the pKB in assay [1], in assay [2] and in assay [3] were 6.8, under 5 and under 5, respectively.

In the case of `CS(=O)(=O)Nc1ccc(Cc2noc(CCc3c[nH]cn3)n2)cc1`, at Histamine H3 receptor, the Ki is 1.26 µM.

On Histamine H3 receptor, `CS(=O)(=O)c1ccc(Cc2noc(CCc3c[nH]cn3)n2)cc1` had a Ki of 0.316 µM.

`COc1ccc(Cc2noc(CCc3c[nH]cn3)n2)cc1`: in assay [1], the pKB turned out to be 6.5. Further, the inhibition constant Ki on Histamine H3 receptor was 0.0398 µM.

With `Clc1ccc(CCc2noc(CCc3c[nH]cn3)n2)cc1`, the pKB was 7.7 in assay [1], under 5 in assay [2] and under 5 in assay [3]. This compound also had a Ki at Histamine H3 receptor of 0.02 µM.

For `Clc1ccc(Cc2nnc(CCc3c[nH]cn3)s2)cc1`, the pKB in assay [1] stood at 7; in assay [2], 5.8. The same compound had a Ki on Histamine H3 receptor of 0.1 µM.

`CSc1ccc(Cc2noc(CCc3c[nH]cn3)n2)cc1`: affinity at Histamine H3 receptor was put at a Ki of 0.0251 µM.

At Histamine H3 receptor, `C[S+]([O-])c1ccc(Cc2noc(CCc3c[nH]cn3)n2)cc1` (stereo not given) showed a Ki of 2.51 µM. Against the preceding compound, the Ki is about 100-fold higher.

`Cn1nc(CCc2c[nH]cn2)nc1Cc1ccc(Cl)cc1` showed a pKB in assay [1] of 5.8. Besides, the affinity at Histamine H3 receptor corresponds to a Ki of 0.126 µM.

`S=C(NC1CCCCC1)N1CCC(c2cnc[nH]2)CC1` [THIOPERAMIDE]: the pKB was 8.3 in assay [1], under 5 in assay [2] and under 5 in assay [3]. Moreover, the ED50 in the assay with Rattus norvegicus [4] stood at 6 mg/kg; in the assay with Rattus norvegicus [5], 5.1 mg/kg; in the assay with Rattus norvegicus [6], 0.8 mg/kg; with Rattus norvegicus [7], 0.8 mg/kg.

Take `Fc1ccc(Cc2noc(CCc3c[nH]cn3)n2)cc1`: in assay [1], the pKB was 8.4. Besides, the Ki at Histamine H3 receptor is 0.01 µM.

`N=C(NCc1ccc(Cl)cc1)SCCCc1c[nH]cn1` [CLOBENPROPIT]: the pKB in assay [1] is 9.9; in assay [2] it was under 6; in assay [3], under 6. The median effective dose (ED50) was over 30 mg/kg with Rattus norvegicus [4], 10.5 mg/kg with Rattus norvegicus [5], 1.3 mg/kg with Rattus norvegicus [6] and 2.4 mg/kg in the assay with Rattus norvegicus [7].

In assay [1], `Ic1ccc(Cc2noc(CCc3c[nH]cn3)n2)cc1` came in with a negative-log KB (pKB) of 7.1. On Histamine H3 receptor, this compound had a Ki of 0.00631 µM.

Compound `FC(F)(F)c1ccc(Cc2noc(CCc3c[nH]cn3)n2)cc1` returned a pKB in assay [1] of 8.3. This compound also showed a Ki at Histamine H3 receptor of 0.00794 µM.

Compound `Clc1ccc(Cc2n[nH]c(CCc3c[nH]cn3)n2)cc1` returned a pKB in assay [1] of 5.7. At Histamine H3 receptor, the Ki is 0.2 µM.

In turn, `Clc1ccc(Cc2noc(CCc3c[nH]cn3)n2)cc1Cl` came in with a pKB in assay [1] of 8. The compound also gave an inhibition constant (Ki) on Histamine H3 receptor of 0.00316 µM.

`Clc1ccc(Cc2csc(CCc3c[nH]cn3)n2)cc1` gave a pKB in assay [1] of 7.3. The compound further gave a Ki on Histamine H3 receptor of 0.2 µM.

Regarding `Clc1ccc(CCc2noc(Cc3c[nH]cn3)n2)cc1`, the Ki at Histamine H3 receptor was 0.251 µM.

Take `Clc1ccc(Cc2noc(CCc3c[nH]cn3)n2)cc1` [GR-175737]: the 50% effective dose (ED50) came out at 1.2 mg/kg in the assay on Rattus norvegicus [4], 1.4 mg/kg in the assay with Rattus norvegicus [5] and 1 mg/kg in the assay on Rattus norvegicus [6].

`Clc1ccc(Cc2noc(Cc3c[nH]cn3)n2)cc1`: the pKB in assay [1] was 7.2. Moreover, at Histamine H3 receptor, the Ki was 0.0251 µM.

The compound `c1ccc(-c2ccc(Cc3noc(CCc4c[nH]cn4)n3)cc2)cc1` had a pKB in assay [1] of 6.6. The compound also had a Ki on Histamine H3 receptor of 0.0631 µM.

In the case of `Clc1ccc(Cc2nc(CCc3c[nH]cn3)no2)cc1`, the pKB was found to be 7 in assay [1] and 5.6 in assay [2]. Moreover, the Ki on Histamine H3 receptor was 0.02 µM.
